In patent publication US20240358693A1, “METHODS OF TREATING PAIN” (Aisa Pharma, Inc., priority 2023, published 2024):

Legend:
Assay type in all cases: in vitro ADME
[1] = In vitro equilibrium dialysis (RED) protein binding, rat plasma; settings: male, Sprague-Dawley, pH 7.4
Protocol: (§1) Cilnidipine was tested by PsychoGenics using standard methodology in 96-well RED (Rapid Equilibrium Dialysis) plates from Thermo Fisher Scientific. Male Sprague-Dawley plasma and brain were obtained from BioIVT to provide the required protein matrix. Plasma was used undiluted, and brain homogenate was diluted 3 to 1 with PBS, pH 7.4. The protein matrix was spiked with the test compound dissolved in DMSO to achieve a 10 μM solution. Three chambers were used to allow for triplicate measures with a final DMSO concentration of <1% in each. The dialysate compartments of the 96-well dialysis chamber was loaded with PBS, pH 7.4 and the sample side was loaded with equal volume of the spiked protein matrix. The dialysis plate was then sealed and incubated at 37° C. for 4 h. After the incubation, samples were taken from each compartment. The buffer side was diluted with the appropriate matrix (plasma or brain homogenate) and the protein matrix side diluted with phosphate buffer. Resultant samples were then crashed in acetonitrile, centrifuged and the supernatant mixed with an aqueous solution providing samples for UPLC-MS/MS analysis. […] This control sample served as the basis for the determination of recovery. […] Samples were analyzed by UPLC-MS/MS using […] (MRM). The UPLC conditions consisted of a binary LC pump with autosampler, an InertSustain column (C18 column, 2.1×50 mm), utilizing gradient elution. The peak areas of the test compound in the buffer and test samples were used to calculate percent binding and recovery according to the following formulas: […]
(§2) The recovery determination serves as an indicator of reliability of the calculated protein binding value.
(§3) The characterization of protein binding is defined using the following ranges:
(§4) • Low 0 to 50% • Moderate 50 to 90% • High 90 to 99% • Very High>99%

rat plasma proteins = assay: as above; settings: male, Sprague-Dawley, plasma, 4 h, 10 μM, pH 7.4
Protocol: as §1, §2, §3, §4

[2] = In vitro equilibrium dialysis (RED) protein binding, rat brain homogenate; settings: male, Sprague-Dawley, rat, pH 7.4
Protocol: as §1, §2, §3, §4

[3] = system: rat brain homogenate proteins; assay: as above; settings: male, Sprague-Dawley, rat, brain homogenate, 4 h, 10 μM, pH 7.4
Protocol: as §1, §2, §3, §4

| SMILES | recovery at 4 h, 10 μM [1] [%] | fraction unbound at 4 h, 10 μM ([1]; plasma) | Unbound (%) (rat plasma proteins) | fraction unbound at 4 h, 10 μM ([2]; brain homogenate) | recovery at 4 h, 10 μM [2] [%] | Unbound (%) [3] [%] |
| --- | --- | --- | --- | --- | --- | --- |
| CC(=O)CC(c1ccccc1)c1c(O)c2ccccc2oc1=O (centres unmarked) [warfarin] | 112.7 ± 0.76 | 0.008 | 0.8 ± 0.02 | 0.827 | 132 ± 0.57 | 82.7 ± 4.98 |
| C=C[C@H]1C[N@@]2CC[C@H]1C[C@@H]2[C@@H](O)c1ccnc2ccc(OC)cc12 [quinidine] | 93.7 ± 3.89 |  |  |  | 125 ± 1.54 |  |
